Results on 10 molecules are retold here after PubChem BioAssay (NCI).

Molecules are shown by their SMILES. Several values for one entry are separate records, joined by “and”; a condition that tells them apart may be missing. Identical values can stand only once.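 A five-concentration, 48-hour dose response in 96-well plates underlies each endpoint, interpolated linearly between surrounding concentrations. GI50 = concentration required for 50% inhibition of growth. TGI: total growth inhibition.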 Bounds are passed on as bounds.

Test in all cases: growth of human tumour cells (NCI), 48 h
The test system of experiment [1] is A549 NSCLC.
The test system of experiment [2] is ACHN renal.
Experiment [3] relates to K-562 leukemia.
Experiment [4] deals with M14 melanoma.
Experiment [5] concerns NCI-H23 lung.
Experiment [6] relates to NCI-H522 lung.
Experiment [7] concerns RXF 393 renal.
Experiment [8] has as its system SF-539 CNS.
Experiment [9] relates to SW-620 colon.
In experiment [10] the test system is U251 CNS.

For the molecule `Cn1c2c(c3ccccc31)CCN(CCCCN1CCc3c(n(C)c4ccccc34)C1=O)C2`, the TGI in [1], in experiment [2], in experiment [3], in experiment [4], in [5] and in experiment [6] was above 100 µM throughout. The TGI in experiment [7], in experiment [8], in [9] and in experiment [10] was above 100 µM each time.
For `O=C(O)c1c(-c2cccc3ccccc23)sc(-c2cccc3ccccc23)c1C(=O)O`, the TGI in experiment [1], in [2], in [3], in [4], in experiment [5] and in experiment [6] was above 100 µM each time. Also, the TGI in experiment [7], in experiment [8], in experiment [9] and in experiment [10] was above 100 µM throughout.
On to `N#Cc1c(-c2nc3ccccc3s2)c(=O)oc2cc(O)ccc12`, for which the TGI in experiment [1], in [2], in experiment [3], in experiment [4], in experiment [5] and in [6] was above 100 µM throughout. The TGI in experiment [7], in experiment [8], in experiment [9] and in experiment [10] was above 100 µM each time.
For the molecule `CC1=C(C(=O)Nc2ccccc2C)C(c2ccccc2)C(C(=O)Nc2ccccc2C)=C(C)N1`, the TGI in [1], in experiment [2], in experiment [3], in experiment [4], in [5] and in experiment [6] was above 100 µM throughout. The TGI in experiment [7] was 71.6 µM; in experiment [8], above 100 µM; in experiment [9], above 100 µM; in experiment [10], above 100 µM.
`O=[N+]([O-])C1C(c2ccccc2)C12c1ccccc1-c1ccccc12` (centres undefined): the GI50 in experiment [1] is 1.91 µM; in [2], 1.47 µM; in [3], 0.452 µM; in [4], 0.789 µM; in [5] it was 2.06 µM; in experiment [6] it was 0.68 µM. In addition, the GI50 in experiment [7] was 0.845 µM; in [8], 1.31 µM; in experiment [9] it was 0.424 µM; in experiment [10] it was 1.03 µM. Moreover, the TGI in [1] is above 100 µM; in [2], 19.1 µM; in experiment [3], above 65.9 µM; in experiment [4] it was 23.7 µM; in experiment [5] it was above 47.2 µM; in [6], 13 µM. Also, the TGI in [7] came to 6.24 µM; in experiment [8], 9 µM; in experiment [9], 8.2 µM; in experiment [10] it was 14 µM.
For the molecule `COc1cc(C2CC(c3ccc(C)cc3)=NN2C=O)ccc1Oc1ccnc2cc(Cl)ccc12` (centres undefined), the GI50 is above 50 µM in experiment [1]; 4.39 µM in experiment [2]; above 50 µM in experiment [3]; 14.2 µM in experiment [4]; 6.93 µM in experiment [5]; 2.72 µM in experiment [6]. Further, the GI50 in experiment [7] is 4.16 µM; in experiment [8], 3.85 µM; in [9] it was above 50 µM; in [10], 6.5 µM. Further, the TGI in experiment [1], in experiment [2], in experiment [3], in experiment [4], in [5] and in experiment [6] was above 50 µM each time. Moreover, the TGI is 20.5 µM in experiment [7], 27 µM in [8], above 50 µM in experiment [9] and 21.4 µM in experiment [10].
In the case of `COc1ccc(C(=O)/C(Br)=C/C(=O)O)cc1`, the GI50 is 25.2 µM in experiment [1]; 78.8 µM in experiment [2]; 18.8 µM in experiment [3]; 52.9 µM in experiment [4]; 21.3 µM in experiment [5]; 13.3 µM in [6]. The GI50 in [7] was 6.8 µM and 15.1 µM; in experiment [8], 9.18 µM and 27.3 µM; in experiment [9] it was 19.2 µM and 24.7 µM. Besides, the TGI in experiment [1] was 275 µM and 246 µM; in experiment [2] it was 293 µM and 235 µM; in experiment [3], 281 µM and 352 µM; in [4] it was 79.3 µM and 120 µM; in experiment [5], 112 µM and 205 µM; in experiment [6], 50.4 µM and 22.9 µM. Further, the TGI in experiment [7] is 19.4 µM and 50 µM; in [8] it was 90.7 µM and 87.3 µM; in experiment [9], 63.6 µM and 145 µM; in experiment [10], 46.5 µM and 52.1 µM.
With `COc1cccc2cc(C)c(C(=O)c3ccccc3)nc12`, the TGI in experiment [1], in experiment [2], in experiment [3], in experiment [4], in experiment [5] and in experiment [6] was above 100 µM throughout. The TGI in experiment [7], in experiment [8], in experiment [9] and in experiment [10] was above 100 µM throughout.
Take `O=C1CC(O)C=C1Nc1ccc(Cl)cc1` (centres undefined): the TGI in [1] was 35.5 µM; in experiment [2] it was above 100 µM; in experiment [3] it was above 100 µM; in experiment [4], above 100 µM; in experiment [5], above 100 µM; in experiment [6], 48.4 µM. The TGI in [7], in experiment [8], in experiment [9] and in experiment [10] was above 100 µM throughout.
In the case of `Cc1c2c(nn1-c1ccc(S(=O)(=O)NC(=S)Nc3ccccc3)cc1)-c1ccccc1CC2`, the GI50 is above 50 µM in [1]; above 50 µM in [2]; above 50 µM in experiment [3]; above 50 µM in [4]; 46.8 µM in [5]; 21.5 µM in [6]. Besides, the GI50 in experiment [7] is above 50 µM; in experiment [8], above 50 µM; in experiment [9], above 50 µM; in [10], 39.6 µM. The TGI in experiment [1], in experiment [2], in [3], in [4], in [5] and in experiment [6] was above 50 µM each time. The TGI in experiment [7], in experiment [8], in [9] and in experiment [10] was above 50 µM throughout.
